# In US20050130890A1, “Amyloid beta is a ligand for FPR class receptors” (priority 2001, published 2005):
# Legend:
# human monocytes = test: Ca2+ mobilization in fura-2 loaded human monocytes; type: cell-based; conditions: PT-treated cells, 20 μM Aβ42
# Source text: Reagents and cells. Aβ peptide (Aβ42) and the peptide with reversed sequence (Aβ42-1) were purchased from California Peptide Research (Napa, Calif.). All peptides were examined for endotoxin contamination and were negative at highest concentrations used in the study. Human peripheral blood monocytes were isolated from buffy coats (National Institutes of Health Clinical Center, Bethesda, Md.) enriched for mononuclear cells by using iso-osmotic Percoll gradient. The purity of the cell preparations was examined by morphology and was >90%. Rat basophilic leukemia cell line (RBL-2H3) transfected with epitope-tagged N-formylpeptide receptor (FPR) (designated ETFR) was a kind gift of Dr. R. Snyderman (Duke University, Durham, N.C.). cDNA cloning and establishment of FPRL1-transfected human embryonic kidney (HEK) 293 cells (FPRL1/293) were described previously (Gao J. L. & Murphy P. M. 1993 J Biol Chem 268:[…]). All the transfected cells were maintained in culture media as described (Su S. B. et al. 1999 J Exp Med 189:395-402).
# Chemotaxis assays and measurement of calcium mobilization. Chemotaxis assays were performed using 48-well chemotaxis chambers (Deng X. et al. 1999 Blood 94:1165-1673). The results were expressed as the mean number (±SD) of migrated cells in three high-powered fields in three replicate samples. Chemotaxis index, which represented the fold increase in the number of cells migrated in response to chemoattractants over the cell response to control medium, also was used. Ca^+ mobilization was measured by stimulating fura-2 AM-loaded human monocytes or receptor-transfected cells with various agents (Deng X. et al. 1999 Blood 94:1165-1673; Su S. B. et al. 1999 J Exp Med 189:395-402) and recording the ratio of fluorescence at 340 and 380 nm in a luminescence spectrometer with FL WinLab program (Perkin-Elmer, Beaconsfield, UK).
# mouse neutrophils = test: Calcium flux in mouse neutrophils; type: cell-based; conditions: PTX 250 ng/ml for 4 h
# Method: Preparation of Mouse Neutrophils. Neutrophils were obtained from the peritoneal cavity of wild type and gene knockout litter mates of F1 and F6 backcrosses of 129/sV FPR−/− mice with C57B1/6 mice 3-4 h after intraperitoneal injection of a 3% thioglycollate solution, as previously described (Gao J-L. et al. 1999 J Exp Med 189:657-662). The cell population was consistently composed of >90% neutrophils, as determined by light microscopy of DiffQuick-stained cytospins. Thus, hereafter we will refer to this cell preparation as neutrophils.
# Calcium Flux Analysis. To monitor intracellular Ca^2+ concentration, adherent cells were harvested by incubation in phosphate-buffered saline at 37° C. for 15 min and then incubated in phosphate-buffered saline containing 2.5 μM Fura-2/AM at 37° C. for 45 min. […] Data were recorded every 200 ms as the relative ratio of fluorescence emitted at 510 nm following sequential excitation at 340 and 380 nm. The following ligands were evaluated: Aβ (nonfibrillated, human residues 1-42; California Peptide Research; Napa, Calif.), fMet-Leu-Phe (fMLF; Sigma), ATP (Life Technologies), and the chemokines RANTES (regulated upon activation normal T-cell expressed and secreted), SDF-1 (stromal cell-derived factor-1), 1-309, fractalkine, MIP-1α (macrophage inflammatory protein-1α), and KC (Peprotech, Rocky Hill, N.J.). […]
# [1] = test system: N9 murine microglial cell line; test: Chemotaxis of N9 microglial cells; type: cell-based, mouse; conditions: LPS-activated N9 cells; PTX 100 ng/ml, 37° C., 30 min
substance,measurement,setting,value
pertussis toxin,effect of preincubation on monocyte calcium flux in response to Aβ42,human monocytes,completely abolished
same,effect of pretreatment on Aβ induction of calcium flux,mouse neutrophils,completely blocked
same,effect of pretreatment on chemotaxis to Aβ,[1],completely blocked
